This is an account of results in US10787443B2, “RAF-degrading conjugate compounds” (ZAMBONI CHEM SOLUTIONS INC., priority 2017, dated 2020).

The structures appear in SMILES notation.

One assay relates to GST-Braf kinase domain and biotinylated E3 substrate adapter (VHL/EloB/EloC complex or CRBN318-425). Description: Dimerization assay (AlphaScreen/AlphaLisa), RAF/E3 dimerization. The assay is classed as binding. The conditions noted are these: Table 15; relative value; compounds 4 fold serial dilutions from 20 μM. On the technique in general: In Alpha technology, singlet oxygen from a donor bead excites a nearby acceptor bead.
For `Cc1ncc(NC(=O)c2cccc(C(F)(F)F)c2)cc1-c1cnc(OCCCCCc2cn(CCCCCC(=O)Nc3cccc4c3C(=O)N(C3CCC(=O)NC3=O)C4=O)nn2)c(N2CCOCC2)c1` (stereo not drawn) [Compound 1.005, N-(6′-((5-(1-(6-((2-(2,6-dioxopiperidin-3-yl)-1,3-dioxoisoindolin-4-yl)amino)-6-oxohexyl)-1H-1,2,3-triazol-4-yl)pentyl)oxy)-2-methyl-5′-morpholino-[3,3′-bipyridin]-5-yl)-3-(trifluoromethyl)benzamide], the RAF/E3 Dimerization result was “+ (5% > RAF/E3 Dimerization)”. On to `Cc1ncc(NC(=O)c2cccc(C(F)(F)F)c2)cc1-c1cnc(OCCCCc2cn(CCCCCC(=O)Nc3cccc4c3C(=O)N(C3CCC(=O)NC3=O)C4=O)nn2)c(N2CCOCC2)c1` (stereo not drawn) [Compound 1.004, N-(6′-(4-(1-(6-((2-(2,6-dioxopiperidin-3-yl)-1,3-dioxoisoindolin-4-yl)amino)-6-oxohexyl)-1H-1,2,3-triazol-4-yl)butoxy)-2-methyl-5′-morpholino-[3,3′-bipyridin]-5-yl)-3-(trifluoromethyl)benzamide], for which the RAF/E3 Dimerization entry was “+ (5% > RAF/E3 Dimerization)”.

Still in this assay, the particulars now being: Table 17; relative value; compounds 4 fold serial dilutions from 20 μM.
`Cc1ncc(NC(=O)c2cccc(C(F)(F)F)c2)cc1-c1cnc(OCCOCCOCC(=O)NCCOCCCc2cccc3c2CN(C2CCC(=O)NC2=O)C3=O)c(N2CCOCC2)c1` (stereo not drawn) [Compound 2.019, N-(6′-((15-(2-(2,6-dioxopiperidin-3-yl)-1-oxoisoindolin-4-yl)-8-oxo-3,6,12-trioxa-9-azapentadecyl)oxy)-2-methyl-5′-morpholino-[3,3′-bipyridin]-5-yl)-3-(trifluoromethyl)benzamide]: the “RAF/E3 Dimerization” value was “+++ (50% > RAF/E3 Dimerization ≥ 25)”. Consider `CNc1ncc2cc(-c3cc(NC(=O)NCCOCCOCCOCC(=O)N[C@@H](C(=O)N4C[C@H](O)C[C@H]4C(=O)N[C@@H](C)c4ccc(-c5scnc5C)cc4)C(C)(C)C)c(F)cc3C)c(C)nc2n1` [Compound 2.041, (2S,4R)-1-((R)-15-(tert-butyl)-1-((2-fluoro-4-methyl-5-(7-methyl-2-(methylamino)pyrido[2,3-d]pyrimidin-6-yl)phenyl)amino)-1,13-dioxo-5,8,11-trioxa-2,14-diazahexadecan-16-oyl)-4-hydroxy-N—((S)-1-(4-(4-methylthiazol-5-yl)phenyl)ethyl)pyrrolidine-2-carboxamide], for which the “RAF/E3 Dimerization” value is listed as “+ (5% > RAF/E3 Dimerization)”. Same read-out and setting: in the case of `Cc1ncc(NC(=O)c2cccc(C(F)(F)F)c2)cc1-c1cnc(OC2CCOCC2)c(N2CCN(CCCCc3cn(CCCCCC(=O)Nc4cccc5c4C(=O)N(C4CCC(=O)NC4=O)C5=O)nn3)CC2)c1` (stereo not drawn) [Compound 2.048, N-(5′-(4-(4-(1-(6-((2-(2,6-dioxopiperidin-3-yl)-1,3-dioxoisoindolin-4-yl)amino)-6-oxohexyl)-1H-1,2,3-triazol-4-yl)butyl)piperazin-1-yl)-2-methyl-6′-((tetrahydro-2H-pyran-4-yl)oxy)-[3,3′-bipyridin]-5-yl)-3-(trifluoromethyl)benzamide] it was “++ (25% > RAF/E3 Dimerization ≥ 5%)”; in that of `O=C1CCC(N2Cc3c(CCCCCCOCCOCCNC(=O)c4cc(Oc5ccc(NC(=O)Nc6ccc(Cl)c(C(F)(F)F)c6)cc5)ccn4)cccc3C2=O)C(=O)N1` (stereo not drawn) [Compound 2.034, 4-(4-(3-(4-chloro-3-(trifluoromethyl)phenyl)ureido)phenoxy)-N-(2-(2-((6-(2-(2,6-dioxopiperidin-3-yl)-1-oxoisoindolin-4-yl)hexyl)oxy)ethoxy)ethyl)picolinamide], “++ (25% > RAF/E3 Dimerization ≥ 5%)”; in that of `Cc1ncsc1-c1ccc([C@H](C)NC(=O)[C@@H]2C[C@@H](O)CN2C(=O)[C@H](NC(=O)COCCOCCOCCOCCCCCCn2cc(-c3ccnc(NCCC#N)n3)c(-c3cnc4[nH]ccc4c3)n2)C(C)(C)C)cc1` [Compound 2.045, (2S,4R)-1-((R)-2-(tert-butyl)-21-(4-(2-((2-cyanoethyl)amino)pyrimidin-4-yl)-3-(1H-pyrrolo[2,3-b]pyridin-5-yl)-H-pyrazol-1-yl)-4-oxo-6,9,12,15-tetraoxa-3-azahenicosan-1-oyl)-4-hydroxy-N—((S)-1-(4-(4-methylthiazol-5-yl)phenyl)ethyl)pyrrolidine-2-carboxamide], “+++++ (RAF/E3 Dimerization ≥75%)”.

On to `CCCCCCNC(=O)Nc1cc(-c2cc3cnc(NCCCCc4cn(CCCCC(=O)N[C@@H](C(=O)N5C[C@H](O)C[C@H]5C(=O)N[C@@H](C)c5ccc(-c6scnc6C)cc5)C(C)(C)C)nn4)nc3nc2C)c(C)cc1F` [Compound 2.038, (2S,4R)-1-((R)-2-(5-(4-(4-((6-(4-fluoro-5-(3-hexylureido)-2-methylphenyl)-7-methylpyrido[2,3-d]pyrimidin-2-yl)amino)butyl)-1H-1,2,3-triazol-1-yl)pentanamido)-3,3-dimethylbutanoyl)-4-hydroxy-N—((S)-1-(4-(4-methylthiazol-5-yl)phenyl)ethyl)pyrrolidine-2-carboxamide], for which the “RAF/E3 Dimerization” value is reported as “+++ (50% > RAF/E3 Dimerization ≥ 25)”.

In the case of `Cc1ncc(NC(=O)c2cccc(C(F)(F)F)c2)cc1-c1cnc(OC2CCOCC2)c(N2CCN(C(=O)CCCc3cn(CCCCCC(=O)Nc4cccc5c4C(=O)N(C4CCC(=O)NC4=O)C5=O)nn3)CC2)c1` (stereo not drawn) [Compound 2.049, N-(5′-(4-(4-(1-(6-((2-(2,6-dioxopiperidin-3-yl)-1,3-dioxoisoindolin-4-yl)amino)-6-oxohexyl)-1H-1,2,3-triazol-4-yl)butanoyl)piperazin-1-yl)-2-methyl-6′-((tetrahydro-2H-pyran-4-yl)oxy)-[3,3′-bipyridin]-5-yl)-3-(trifluoromethyl)benzamide], the “RAF/E3 Dimerization” value is reported as “+ (5% > RAF/E3 Dimerization)”. On the same count and under the same terms, in the case of `CCCCCCNC(=O)Nc1cc(-c2cc3cnc(NCCCCc4cn(CCCCCC(=O)Nc5cccc6c5C(=O)N(C5CCC(=O)NC5=O)C6=O)nn4)nc3nc2C)c(C)cc1F` (stereo not drawn) [Compound 2.036, N-(2-(2,6-dioxopiperidin-3-yl)-1,3-dioxoisoindolin-4-yl)-6-(4-(4-((6-(4-fluoro-5-(3-hexylureido)-2-methylphenyl)-7-methylpyrido[2,3-d]pyrimidin-2-yl)amino)butyl)-1H-1,2,3-triazol-1-yl)hexanamide] it was “++ (25% > RAF/E3 Dimerization ≥ 5%)”; in that of `Cc1ncsc1-c1ccc([C@H](C)NC(=O)C2C[C@@H](O)CN2C(=O)C(NC(=O)CCOCCOCCNC(=O)c2cc(Oc3ccc(NC(=O)Nc4ccc(Cl)c(C(F)(F)F)c4)cc3)ccn2)C(C)(C)C)cc1` (stereo in doubt) [Compound 1.014, 4-(4-(3-(4-chloro-3-(trifluoromethyl)phenyl)ureido)phenoxy)-N-(2-(2-(3-(((R)-1-((2S,4R)-4-hydroxy-2-(((S)-1-(4-(4-methylthiazol-5-yl)phenyl)ethyl)carbamoyl)pyrrolidin-1-yl)-3,3-dimethyl-1-oxobutan-2-yl)amino)-3-oxopropoxy)ethoxy)ethyl)picolinamide], “+ (5% > RAF/E3 Dimerization)”; in that of `O=C1CCC(N2C(=O)c3cccc(NC(=O)CCCCCn4cc(CCCCNC(=O)c5cc(Oc6ccc(NC(=O)Nc7ccc(Cl)c(C(F)(F)F)c7)cc6)ccn5)nn4)c3C2=O)C(=O)N1` (stereo not drawn) [Compound 2.026, 4-(4-(3-(4-chloro-3-(trifluoromethyl)phenyl)ureido)phenoxy)-N-(4-(1-(6-((2-(2,6-dioxopiperidin-3-yl)-1,3-dioxoisoindolin-4-yl)amino)-6-oxohexyl)-1H-1,2,3-triazol-4-yl)butyl)picolinamide], “+ (5% > RAF/E3 Dimerization)”.
